Measurements from patent US20100004469A1, “ANTIMICROBIAL AGENTS AND MICROBICIDAL AGENTS” (KABUSHIKI KAISHA TOYOTA JIDOSHOKKI, priority 2006, published 2010).

Legend:
Type in all cases: cell-based
[1] = tested on: Salmonella Enteritidis (NBRC 3313); assay: Test for antimicrobial activity, viable cell count (Example 1); details: room temperature
Method: (§1) After said strains were cultured in SCD agar medium at 35±2° C. for 18 to 24 hours, inocula were prepared by suspending the cultured stains in sterile purified water and adjusting the turbidity so as to correspond with No. 1 MacFarland. Using agar plates, the concentrations of the inocula were measured according to the agar plate mixed dilution method (Table 1). 3 mL of each of the 10%, 1.0% and 0.1% aqueous solutions of the test compound, and of sterile purified water (control) were prepared (n=1). 0.03 mL of said inocula was inoculated into each of the test solutions at room temperature. Immediately after, 15 minutes after, and 180 minutes after the inoculations, 0.5 mL of each of the test solutions was added to 49.5 mL of a sterile phosphate buffer (Pro-media MV2-1000, manufactured by ELMEX), and mixed. A ten fold dilution series of each of the mixtures was constructed. Then, the number of the viable cells therein were measured, and then it was converted to the number of viable cells per 1 mL of the test solutions or control. The number of viable cell was measured according to “Viable cell count; the agar plate mixed dilution method in the Japanese Pharmacopoeia, 14th revised edition”.

[2] = tested on: Staphylococcus aureus subsp. aureus (NBRC 13276); assay: as above; details: room temperature
Method: as §1

[3] = tested on: Escherichia coli (NBRC 3972); assay: as above; details: room temperature
Method: as §1

[4] = tested on: Salmonella Enteritidis (NBRC 3313); assay: Test for antimicrobial activity with neutralization, viable cell count (Example 2); details: 20% aqueous solution, neutralized
Method: (§2) After said strains were cultured in SCD agar medium at 35±2° C. for 18 to 24 hours, inocula were prepared by suspending the stains in sterile purified water and adjusting the turbidity so as to correspond with No. 1 MacFarland. Using agar plate, the concentrations of the inocula were measured according to the agar plate mixed dilution method (Table 3). 3 mL of each of 20% aqueous solution of the test compound, a stock solution of a comparative compound and sterile water, (control) was prepared (n=1). 0.03 mL of said inocula was inoculated into each of the test solutions at a room temperature. Immediately after, 15 minutes after and 180 minutes after the inoculations, neutralization was performed under the following conditions. 0.5 mL of the test solution was added to 4.5 mL of sterile sodium hydrate solution at the concentration of 0.25 mol/L (sodium hydrate; manufactured by Wako Pure Chemical Industries, Ltd.), and mixed. Then, 45 mL of a sterile phosphate buffer (Pro-media MV2-1000, manufactured by ELMEX) was immediately added and mixed. 0.5 mL of the test solution was added to 4.5 mL of sterile sodium hydrate solution at the concentration of 2.0 mol/L, and mixed. Then, 45 mL of a sterile phosphate buffer was immediately added and mixed. A ten-fold dilution series of each of the neutralization solution was prepared. Then, the number of the viable cells therein was measured and it was converted to the number of viable cells per 1 mL of the test solutions or control. The number of viable cell was measured according to “Viable cell count; the agar plate mixed dilution method in the Japanese Pharmacopoeia, 14th revised edition”.

[5] = tested on: Staphylococcus aureus subsp. aureus (NBRC 13276); assay: as above; details: 20% aqueous solution, neutralized
Method: as §2

[6] = tested on: Escherichia coli (NBRC 3972); assay: as above; details: 20% aqueous solution, neutralized
Method: as §2

Structure (SMILES): O=C(O)c1cc(C(=O)O)oc(=O)c1 [test compound, 2H-pyran-2-on-4,6-dicarbonic acid]
- number of viable cells, Measured 15 min. after inoculation ([1]; 0.1% aqueous solution): <100 cfu/mL
- number of viable cells, Measured 180 min. after inoculation ([1]; 0.1% aqueous solution): <100 cfu/mL
- number of viable cells, Measured immediately after inoculation ([1]; 0.1% aqueous solution): 12,000 cfu/mL
- number of viable cells, Measured 15 min. after inoculation ([1]; 1.0% aqueous solution): <100 cfu/mL
- number of viable cells, Measured 180 min. after inoculation ([1]; 1.0% aqueous solution): <100 cfu/mL
- number of viable cells, Measured immediately after inoculation ([1]; 1.0% aqueous solution): <100 cfu/mL
- number of viable cells, Measured 15 min. after inoculation ([1]; 10% aqueous solution): <100 cfu/mL
- number of viable cells, Measured 180 min. after inoculation ([1]; 10% aqueous solution): <100 cfu/mL
- number of viable cells, Measured immediately after inoculation ([1]; 10% aqueous solution): <100 cfu/mL
- number of viable cells, Measured 15 min. after inoculation ([2]; 0.1% aqueous solution): <100 cfu/mL
- number of viable cells, Measured 180 min. after inoculation ([2]; 0.1% aqueous solution): <100 cfu/mL
- number of viable cells, Measured immediately after inoculation ([2]; 0.1% aqueous solution): 11,000 cfu/mL
- number of viable cells, Measured 15 min. after inoculation ([2]; 1.0% aqueous solution): <100 cfu/mL
- number of viable cells, Measured 180 min. after inoculation ([2]; 1.0% aqueous solution): <100 cfu/mL
- number of viable cells, Measured immediately after inoculation ([2]; 1.0% aqueous solution): 5,000 cfu/mL
- number of viable cells, Measured 15 min. after inoculation ([2]; 10% aqueous solution): <100 cfu/mL
- number of viable cells, Measured 180 min. after inoculation ([2]; 10% aqueous solution): <100 cfu/mL
- number of viable cells, Measured immediately after inoculation ([2]; 10% aqueous solution): <100 cfu/mL
- number of viable cells, Measured 15 min. after inoculation ([3]; 0.1% aqueous solution): <100 cfu/mL
- number of viable cells, Measured 180 min. after inoculation ([3]; 0.1% aqueous solution): <100 cfu/mL
- number of viable cells, Measured immediately after inoculation ([3]; 0.1% aqueous solution): 10,000 cfu/mL
- number of viable cells, Measured 15 min. after inoculation ([3]; 1.0% aqueous solution): <100 cfu/mL
- number of viable cells, Measured 180 min. after inoculation ([3]; 1.0% aqueous solution): <100 cfu/mL
- number of viable cells, Measured immediately after inoculation ([3]; 1.0% aqueous solution): <100 cfu/mL
- number of viable cells, Measured 15 min. after inoculation ([3]; 10% aqueous solution): <100 cfu/mL
- number of viable cells, Measured 180 min. after inoculation ([3]; 10% aqueous solution): <100 cfu/mL
- number of viable cells, Measured immediately after inoculation ([3]; 10% aqueous solution): <100 cfu/mL
- number of viable cells, Measured 15 min. after inoculation ([4]; 15 min. after inoculation): <100 cfu/mL
- number of viable cells, Measured 180 min. after inoculation ([4]; 180 min. after inoculation): <100 cfu/mL
- number of viable cells, Measured immediately after inoculation ([4]; immediately after inoculation): <100 cfu/mL
- number of viable cells, Measured 15 min. after inoculation ([5]; 15 min. after inoculation): <100 cfu/mL
- number of viable cells, Measured 180 min. after inoculation ([5]; 180 min. after inoculation): <100 cfu/mL
- number of viable cells, Measured immediately after inoculation ([5]; immediately after inoculation): <100 cfu/mL
- number of viable cells, Measured 15 min. after inoculation ([6]; 15 min. after inoculation): <100 cfu/mL
- number of viable cells, Measured 180 min. after inoculation ([6]; 180 min. after inoculation): <100 cfu/mL
- number of viable cells, Measured immediately after inoculation ([6]; immediately after inoculation): <100 cfu/mL
